# Tests used:
# [1] = tested on: P3-P4 FVB mouse cochlear explants; set-up: method as in PMID 29514916, PMID 9303151; conditions: identical P3 FVB explant model; read-out: IC50, protection from cisplatin in explants; cited from earlier work
# [2] = set-up: method as in PMID 25894725, PMID 26655654; conditions: cited from earlier work
# [3] = tested on: HEI-OC1 cell line; assay: Caspase-Glo 3/7 activity screen for protection from cisplatin-induced cell death; assay type: cell-based, mouse; conditions: HEI-OC1, 50 μM cisplatin, 22 hours
# Method: An unbiased screen for compounds protective against cisplatin ototoxicity ([12], [13]) was conducted using the immortalized inner ear cell line HEI-OC1 derived from mouse cochlea ([14]). One hundred sixty-two unique small-molecule kinase-specific inhibitors were screened in dose-response mode for protection from 50 μM cisplatin. A caspase-3/7 activity assay was selected to measure apoptosis using a protocol that quantifies a luminescent product derived from the cleavage of caspase-3/7 substrate (Caspase-Glo 3/7 reagent). One hundred percent luminescence was defined by cells treated with cisplatin alone, and 0% was defined by untreated cells (Fig. 1A, fig. S1, table S1, and dataset in the Supplementary Materials).
# In these screens, caspase-3 cleavage was chosen as the end point indicating cisplatin-induced apoptosis, because it allowed the inhibition of cell death to be monitored at the level of any molecular target upstream of caspase-3 cleavage in the HEI-OC1 cell line. Cells were plated at a previously optimized concentration of 1600 cells per well in medium without γ-interferon to limit proliferation and tested against 50 μM cisplatin based on a previous dose–response curve. Tested compounds were dissolved in DMSO before addition to medium with a final DMSO concentration of <0.5%. The screens are described in detail in our previous publications ([12], [13]). […]
# [4] = cited from earlier work
# [5] = set-up: method as in PMID 25665007, PMID 25058905, PMID 23044998; conditions: cisplatin chemotherapy; cited from earlier work
# [6] = tested on: P3-P4 FVB mouse cochlear explants; conditions: 150 μM, 24 hours
# Method: Mouse cochlear explants are widely recognized as an alternative to in vivo cochlear models and pragmatic for focused drug screening ([37]). […] Medium-alone, drug-alone, and cisplatin-alone treatments were used as controls.
# P3-P4 FVB mouse cochleae were dissected and maintained in culture on filter inserts in six-well plates with 1 ml of growth medium DMEM (12430-054,Gibco Life Technologies), with 1% FBS (16000-044, Gibco Life Technologies), B-27 supplement (200 μl/500 ml; 17504-44, Gibco Life Technologies), N-2 supplement (100 μl/500 ml; 17502-048, Gibco Life Technologies), and ampicillin (50 μg/ml; A5354-10ML, Sigma-Aldrich) both inside and outside the filter (Millicell, PICM03050, Millipore). […] Cochleae were imaged by confocal microscopy, two 160-μm regions from middle turns were photographed, and the number of intact HCs was counted. Two to five independent cochleae were tested for each experimental condition.
# [7] = tested on: P42 FVB mice; assay: Cisplatin-induced hearing loss in adult mice (ABR, OHC counts, pERK); conditions: cisplatin 30 mg/kg i.p., alone or combined with dabrafenib
# Method: As described in Fig. 4A, baseline auditory brainstem response (ABR) thresholds for P42 FVB mice were established 1 week before experimental procedures. […] Animals were allowed 21 days after cisplatin injection to recover, and final ABR thresholds were recorded.
# Ten milligrams of cisplatin (479306, Sigma-Aldrich) powder was dissolved in 10 ml of sterile saline (0.9% NaCl) at 37°C for 40 to 60 min. Cisplatin was administered to FVB mice at 30 mg/kg via intraperitoneal injection. One day before cisplatin injection, mice received 1 ml of saline by subcutaneous injection. To ameliorate dehydration after cisplatin injection, 1 ml of warm saline was injected twice per day for at least 7 days or until body weight started to recover. The cages of cisplatin-treated mice were placed on the heating pad for at least 7 days or until body weight began to recover. Fresh mush food was daily given for at least 7 days.
# Compounds were dissolved in a mixture of 10% DMSO, 5% Tween 80 (P1754, Sigma-Aldrich), 40% PEG-E-300 (91462-1KG, Sigma-Aldrich), and 45% 0.9% saline.
# ABR in mice was measured for left ears as described previously with minor modifications ([13], [34]). In brief, ABR waveforms were recorded in a sound booth (Industrial Acoustic Company) by using subdermal needles positioned in the skull, below the pinna, and at the base of the tail, and the responses were fed into a low-impedance Medusa digital biological amplifier system (RA4L; TDT; 20-dB gain). At each frequency, the stimulus intensity was reduced from 90 to 0 dB in 10-dB steps to determine the threshold decibel SPL when the electrical response was just above the noise floor. ABR waveforms were averaged in response to 500 tone bursts. The recorded signals were filtered by a band-pass filter from 300 Hz to 3 kHz. Pretreatment ABR recordings of adult FVB mice (aged 6 weeks) were acquired 1 week before all treatments, and posttreatment ABR measurements were recorded 21 days after cisplatin treatment or 14 days after noise exposure. ABR threshold was determined by the presence of any of three or more of the five waveform peaks. […] All thresholds and shifts were determined independently by two experimenters for each mouse. Individual ABR wave 1 amplitudes were measured as the difference between the positive peak and the following negative trough.
# Cochleae from adult mice were prepared and examined as described previously ([85], [86]). All images were acquired with a confocal microscope (LSM 700 or 710, Zeiss). Samples were stained with phalloidin (A12379 or A12380, Invitrogen) or with antibodies for other markers. The following primary antibodies were used: anti–myosin VI (1:400; 25-6791; Proteus Bioscience), anti–myosin VIIa ([…];138-1-s, Developmental Studies Hybridoma Bank), anti-Tuj1 (1:250; 801201, BioLegend), anti-pERK (1:400; 9101S, Cell Signaling Technology), or anti-Ctbp2 (1:500; 612044, BD Transduction). Anti-rabbit Alexa Fluor 488 (1:400; A11034) and anti-mouse Alexa Fluor 647 (1:400; A31571) secondary antibodies were purchased from Invitrogen. ProLong gold antifade reagent with 4′,6-diamidino-2-phenylindole (P36941, Invitrogen) was used to counterstain nuclei.
compound,measurement,setting,value
CSCC[C@@H](N)C(=O)O [D-methionine],IC50,[1],98.4 µM
C[C@@H]1C[C@H]2[C@@H]3CCC4=CC(=O)C=C[C@]4(C)[C@@]3(F)[C@@H](O)C[C@]2(C)[C@@]1(O)C(=O)CO [dexamethasone],effectiveness in treating noise ototoxicity,[2],only partially effective
same,IC50,[1],> 0.25 µM
Cc1ccc(C(=O)Cn2c3c(sc2=N)CCCC3)cc1 [Pifithrin-α],IC50,[3],7.7 µM
"O=S([O-])([O-])=S.[Na+].[Na+] [STS, sodium thiosulfate]",lowering of incidence of hearing loss,"[4]; children with localized standard-risk hepatoblastoma, 6 hours after cisplatin chemotherapy",48%
same,survival of treated patients with disseminated tumors,[4],lowered survival rate
N.N.[Cl][Pt][Cl] [cisplatin],patients with cancer with hearing loss,[5],40 to 60%
same,OHCs that died with cisplatin,[6],~40%
same,survival rate of mice,[7],50%
O=C1Cc2c([nH]c3ccc(Br)cc23)-c2ccccc2N1 [kenpaullone],IC50,[1],0.2 µM
O=c1c2ccccc2[se]n1-c1ccccc1 [ebselen],IC50,[1],10.8 µM

# — publication PMC7821884, “BRAF inhibition protects against hearing loss in mice” (Science Advances, 2020)
